Columns and labels:
[1] = system: in vivo model of peritonitis; assay: In vivo model of peritonitis (LPS-induced inflammatory response), IL-1β by ELISA; parameters: species or system Mice
Method: Mice were treated with BANA, Benzoic Acid (50 mg/kg, IP) or the vehicle (100 mM Phosphate buffer 10% DMSO) for 1 hour. Then were injected with LPS (10 mg/kg, IP) or PBS for 2 hours. Mice were collected for peritoneal wash and blood samples were extracted. The peritoneal wash and plasma were stored to measure IL-1β by ELISA. The values are show as mean±SD from three mice per condition and we have used the statistic test one-way ANOVA with Bonferroni.

[2] = system: NF-κB and inflammasome function in macrophages (THP-1 cells); assay: IL-1β secretion by ELISA in PMA-differentiated THP-1 macrophages stimulated with LPS and ATP; assay type: cell-based
Method: In order to compare benzoic acid (BA) and nitroalkene benzoic acid (BANA) over NF-κB and inflammasome function in macrophages, THP-1 cells were differentiated into macrophages with PMA (200 nM, 48 h). Cells were then stimulated with LPS (250 ng/mL) and with ATP (5 mM, 45 minutes). Together with LPS (1st signal, FIG. 6) or ATP (2nd signal, FIG. 7), cells were treated with Benzoic acid (30 μM) or BANA (30 μM). Supernatants were collected and IL-1β secretion was measured by ELISA. […] Thus, BANA inhibits both the generation of the inflammasome, and inhibits the inflammasome itself. Further exemplary studies were performed with Flufenamate (FluFE) and nitroalkene flufenamate (FluFENA). In order to study the effect of Flufenamate (FluFE) and FluFENA over NF-κB and inflammasome function in macrophages, THP-1 cells were differentiated into macrophages with PMA (200 nM, 48 h). Cells were stimulated with LPS (250 ng/mL) and then with ATP (5 mM, 45 minutes). […] Cells were stimulated with LPS (250 ng/mL) and then with ATP (5 mM, 45 minutes). Together with LPS (1st signal, FIG. 10) or ATP (2nd signal, FIG. 11), cells were treated with Ibuprofen (20 μM) or IBUNA ([…] were collected and IL-1β secretion was measured by ELISA.

[3] = mice, 50 mg/kg IP 1 hour before LPS 10 mg/kg IP for 2 hours, as opposed to BA

How did the “IL-1β release in LPS-induced inflammatory response (FIG. 12 legend)” value ([1]; in vivo) turn out when `O=C(O)c1ccc(/C=C/[N+](=O)[O-])cc1` [BANA, (E)-4-(2-nitrovinyl)benzoic acid] was run?
Its value is “in vivo inhibition of IL-1β release”.

What about the “level of IL-1β in blood plasma” value [1, 3] of the same molecule?
The value was “marked decrease”.

And the “level of IL-1β in peritoneal wash” value [1, 3]?
Its value is “marked decrease”.

And the “IL-1β secretion, treatment together with LPS (1st signal)” value ([2]; 30 μM, LPS 250 ng/mL then ATP 5 mM 45 minutes, FIG. 6)?
Its value is “inhibition of IL-1β secretion in cells stimulated by LPS”.

And the “IL-1β secretion, treatment together with ATP (2nd signal)” value ([2]; 30 μM, LPS 250 ng/mL then ATP 5 mM 45 minutes, FIG. 7)?
The value was “inhibition of IL-1β secretion in cells stimulated by ATP”.

For `O=C(O)c1cc(/C=C/[N+](=O)[O-])ccc1Nc1cccc(C(F)(F)F)c1` [FluFENA, (E)-5-(2-nitrovinyl)-2-((3-(trifluoromethyl)phenyl)amino)benzoic acid], which “IL-1β secretion, treatment together with LPS (1st signal) or ATP (2nd signal), versus Flufenamate (FluFE)” value ([2]; FluFE (5 μM) or FluFENA (5), FIG. 8 and FIG. 9) is on record?
The value was “unexpected advantage”.

Which “IL-1β secretion, treatment together with LPS (1st signal) or ATP (2nd signal), versus Ibuprofen” value ([2]; Ibuprofen (20 μM) or IBUNA (20), FIG. 10 and FIG. 11) does the source give for `CC(C)Cc1ccc(C(C)C(=O)O)cc1/C=C/[N+](=O)[O-]` (stereo not shown) [IBUNA, (E)-2-(4-isobutyl-3-(2-nitrovinyl)phenyl)propanoic acid] here?
Its value is “unexpected superiority”.

From US10906864B2, “Nitroalkene non steroidal anti-inflammatory drugs (NA-NSAIDS) and methods of treating inflammation related conditions” (Institut Pasteur de Montevideo, priority 2017, dated 2021)
